Laboratory results: paper PMC9770967, “Native holdup (nHU) to measure binding affinities from cell extracts” (Science Advances, 2022)
*1 amine or outer side, *2 acyl side, *3 side chain or, on linkers, in order; H or OH if unused. Where a SMILES comes first, the peptide text is derived from it. The star is where a group is joined. X1 = O=C(CCCC[C@@H]1SC[C@@H]2NC(=O)N[C@@H]21)NCCCOCCOCCOCCCN*; Suc = O=C(CCC(=O)[*:2])[*:1]

Columns and labels:
[1] = molecular target: endogenous full-length SCRIB (Homo sapiens, UniProt Q14160); assay type: binding; conditions: titration, Jurkat extract
[2] = molecular target: isolated PDZ domain of SNX27; conditions: 10-mer PBM peptide vs isolated PDZ domain, holdup; cited from earlier work
[3] = molecular target: isolated PDZ domain of SNX27; conditions: calorimetry; cited from earlier work
SCRIB PDZ2 = conditions: fragmentomic, isolated PDZ domain; cited from earlier work
From the text: (§1) Supplement sciadv.ade3828_table_s1.zip/sciadv.ade3828_table_s1.xlsx, sheet "nHU-WB_SP"

SCRIB PDZ4 = conditions: fragmentomic, isolated PDZ domain; cited from earlier work
From the text: as §1

SCRIB PDZ3 = conditions: fragmentomic, isolated PDZ domain; cited from earlier work
From the text: as §1

SCRIB PDZ1 = conditions: fragmentomic, isolated PDZ domain; cited from earlier work
From the text: Supplement sciadv.ade3828_table_s1.zip/sciadv.ade3828_table_s1.xlsx, sheet "nHU-WB_SP" | column: Domain-motif fragmentomic affinities (ProfAff)

SNX27_PDZ [4] = test: AP-MS control pull-down on leftover resin, SNX27_PDZ bait, total Jurkat extracts; assay type: binding, human
Experimental: (§2) Leftover beads from nHU-MS experiments were washed three times immediately after the separation of the supernatant [10 resin volume in buffer containing 50 mM tris (pH 8.5), 150 mM NaCl, 1% Triton X-100, 10× cOmplete EDTA-free protease inhibitor cocktail, 2 mM EDTA, and 1 mM TCEP]. Then, the beads were washed two times [10 resin volume buffer containing 50 mM tris (pH 8.5), 150 mM NaCl, and 1 mM TCEP]. Last, captured protein was eluted from the resin in two steps, and the eluted fractions were pooled. For each elution, the beads were incubated for 30 min with three resin volume buffer containing 20 mM tris (pH 8.5), 100 mM NaCl, 500 μM TCEP, and 8 M urea. Between each step, the beads were separated by mild centrifugation, and the supernatant was removed by gentle pipetting.
(§3) The nHU samples were precipitated with trichloroacetic acid (TCA) 20% overnight at 4°C and centrifuged at 14,000 rpm for 10 min at 4°C. The protein pellets were washed twice with 1 ml of cold acetone and air-dried. The protein extracts were solubilized in 8 M urea, reduced with 5 mM TCEP for 30 min, and alkylated with 10 mM iodoacetamide for 30 min in the dark. Double digestion was performed at 37°C with 500 ng of endoproteinase Lys-C (Wako, Richmond, USA) for 4 hours, followed by fourfold dilution and an overnight digestion with 500 ng of trypsin (Promega, Charbonnieres les Bains, France). Peptide mixtures were then desalted on a C18 spin-column and dried on a speed vacuum.
(§4) Samples were analyzed using an Ultimate 3000 nano-RSLC coupled in line via a nano-electrospray ionization source, with an LTQ-Orbitrap ELITE mass spectrometer (Thermo Fisher Scientific, San Jose, CA) or with the Orbitrap Exploris 480 mass spectrometer (Thermo Fisher Scientific, Bremen, Germany) equipped with a high field asymmetric ion mobility spectrometry (FAIMS) module. Peptide mixtures were injected in 0.1% trifluoroacetic acid on a C18 Acclaim PepMap100 trap column [75 μm inner diameter (ID) × 2 cm, 3 μm, 100 Å, Thermo Fisher Scientific] for 3 min at 5 μl/min with 2% acetonitrile (ACN) and 0.1% formic acid (FA) in H2O and then separated on a C18 Acclaim PepMap100 nano-column (75 μm ID × 50 cm, 2.6 μm, 150 Å, Thermo Fisher Scientific) at 300 nl/min and 40°C with a 90-min linear gradient from 5 to 30% buffer B (A: 0.1% FA in H2O/B: 80% ACN, 0.1% FA in H2O) and regeneration at 5% B. Spray voltage was set to 2.1 kV and heated capillary temperature was set to 280°C.
For the Orbitrap Elite, the mass spectrometer was operated in positive ionization mode in data-dependent mode with survey scans from mass/charge ratio (m/z) 350 to 1500 acquired in the Orbitrap at a resolution of 120,000 at m/z 400. The 20 most intense peaks from survey scans were selected for further fragmentation in the linear ion trap with an isolation window of 2.0 Da and were fragmented by collision-induced dissociation (CID) with a normalized collision energy of 35% (TOP 20 CID method). Unassigned and single-charged states were excluded from fragmentation. The ion target value for the survey scans (in the Orbitrap) and the MS2 mode (in the linear ion trap) were set to 1E6 and 5E3, respectively, and the maximum injection time was set to 100 ms for both scan modes. Dynamic exclusion was set to 20 s after one repeat count with mass width at ±10 parts per million (ppm). […]

SNX27_PDZ [5] = test: nHU-MS, SNX27_PDZ bait, total Jurkat extracts, series 1; assay type: binding, human
Experimental: (§5) The empty His6-AviTag-MBP-TEV vector was used to produce biotinylated MBP for control experiments. Proteins were coexpressed with BirA biotin ligase (PET21a-BirA, Addgene, no. 20857) in Escherichia coli BL21(DE3) cells. At isopropyl-β-D-thiogalactopyranoside (IPTG) induction (1 mM IPTG at 18°C overnight), 50 μM biotin was added to the media. Harvested cells were lysed in a buffer containing 50 mM tris (pH 7.5), 150 to 300 mM NaCl, 50 μM biotin, 2 mM β-mercaptoethanol, cOmplete EDTA-free protease inhibitor cocktail (Roche, Basel, Switzerland), 1% Triton X-100, and trace amount of deoxyribonuclease, ribonuclease, and lysozyme. Lysates were frozen at −20°C before further purification steps. Lysates were sonicated and centrifuged for clarification. Expressed proteins were captured on in-house prepacked Ni-IDA (Protino Ni-IDA Resin, Macherey-Nagel, Duren, Germany) columns and were washed with at least 10 column volumes of cold wash buffer [50 mM tris (pH 7.5), 150 mM NaCl, and 2 mM β-mercaptoethanol] before elution with 250 mM imidazole. The Ni elution was collected directly on a preequilibrated amylose column (amylose high flow resin, New England Biolabs, Ipswich, MA). Amylose column was washed with 5 column volumes of cold wash buffer before fractionated elution in a buffer containing 25 mM Hepes (pH 7.5), 150 mM NaCl, 1 mM TCEP, 10% glycerol, 5 mM maltose, and cOmplete EDTA-free protease inhibitor cocktail. The concentration of proteins was determined by their ultraviolet absorption at 280 nm before aliquots were snap-frozen in liquid nitrogen and stored at −80°C.
(§6) For saturating streptavidin resin with biotinylated peptides or biotin, 50 μl of streptavidin resin was mixed with biotin or peptide at 40 to 60 μM concentration in 6 to 6.5 resin volume for 60 min. To saturate streptavidin resin with biotinylated proteins, 50 μl of streptavidin resin (Streptavidin Sepharose High Performance, Cytiva) was mixed with biotinylated MBP or MBP-PDZ at 40 to 50 μM concentration in 20× resin volume for 60 min. After saturation, resins were washed a single time [10 resin volume, holdup buffer: 50 mM tris (pH 7.5), 300 mM NaCl, and 1 mM TCEP, 0.22-μm filtered] and were depleted with biotin (10 resin volume, 10 min, holdup buffer supplemented with 100 μM biotin). Last, resins were washed two times (10 resin volume, holdup buffer).
(§7) For single-point nHU experiments carried out at ~10 μM bait concentration, 50 μl of saturated streptavidin resin was mixed with 200 μl of cell lysate (2 mg/ml). Titration experiments were carried out by mixing control and bait-saturated resin and keeping the total resin volume constant; e.g., ~5 μM bait concentration can be achieved by mixing 25 μl of bait-saturated streptavidin resin with 25 μl of control resin and 200 μl of cell lysate (2 mg/ml). Control and bait-saturated resins were prepared in larger amounts, and a serial dilution was prepared with these presaturated resins to achieve different resin ratios.
(§8) Unless specified elswhere, the nHU mixture was incubated at 4°C for 2 hours. After the incubation ended, the resin was separated from the supernatant by a brief centrifugation (15 s, 2000 g). Then, half of the supernatant was removed by pipetting without any delay to avoid any resin contamination; e.g., 100 μl of supernatant is collected if 200 μl of cell lysate was used as analyte. Alternatively, the supernatant can be centrifuged an additional time to clarify it further, removing any possible resin contamination. In principle, the separation of the supernatant should be as fast as possible since any delay can perturb the equilibrium. […] Alternatively, the resin can be separated from the supernatant using filter plates (e.g., various products of Millipore, Burlington, MA) or spin columns (e.g., Pierce spin cups—cellulose acetate filter from Thermo Fisher Scientific, Waltham, MA) to achieve faster separation. […]

SNX27_PDZ [6] = test: nHU-MS, SNX27_PDZ bait, total SH-SY5Y extracts; assay type: binding, human; conditions: for pKapp_HU_not_filtered / pKapp_significant_binders_HU: apparent; for pKapp_HU_not_filtered: Eq. 2, not filtered for significance; for pKapp_significant_binders_HU: Eq. 2, significant binders (1 σ, P < 0.05); for BI_HU / FC_HU (log2 fold change) / Ratio_HU: n = 6
Experimental: as §5, §6, §7, §8

SNX27_PDZ [7] = test: AP-MS control pull-down on leftover resin, SNX27_PDZ bait, total SH-SY5Y extracts; assay type: binding, human; conditions: n = 6
Experimental: as §2, §3, §4
For the Orbitrap Elite, the mass spectrometer was operated in positive ionization mode in data-dependent mode with survey scans from mass/charge ratio (m/z) 350 to 1500 acquired in the Orbitrap at a resolution of 120,000 at m/z 400. […]

full-length SNX27 = test: nHU-MS, recombinant full-length SNX27 bait, total Jurkat extracts; assay type: binding, human; conditions: apparent, Fig. 4D, n = 6
Experimental: as §5, with “Amylose column was washed with 5 column volumes of cold wash buffer before fractionated elution in a buffer containing 25 mM Hepes (pH 7.5), 150 mM NaCl, 1 mM TCEP, 10% glycerol, 5 mM maltose, and cOmplete EDTA-free protease inhibitor cocktail.” left out, “−80°C. […]” for “−80°C.”

[8] = Jurkat, series 1, leftover resin, n = 6

endogenous full-length SCRIB, sequence (Q14160 whole entry, the tested form may be a part): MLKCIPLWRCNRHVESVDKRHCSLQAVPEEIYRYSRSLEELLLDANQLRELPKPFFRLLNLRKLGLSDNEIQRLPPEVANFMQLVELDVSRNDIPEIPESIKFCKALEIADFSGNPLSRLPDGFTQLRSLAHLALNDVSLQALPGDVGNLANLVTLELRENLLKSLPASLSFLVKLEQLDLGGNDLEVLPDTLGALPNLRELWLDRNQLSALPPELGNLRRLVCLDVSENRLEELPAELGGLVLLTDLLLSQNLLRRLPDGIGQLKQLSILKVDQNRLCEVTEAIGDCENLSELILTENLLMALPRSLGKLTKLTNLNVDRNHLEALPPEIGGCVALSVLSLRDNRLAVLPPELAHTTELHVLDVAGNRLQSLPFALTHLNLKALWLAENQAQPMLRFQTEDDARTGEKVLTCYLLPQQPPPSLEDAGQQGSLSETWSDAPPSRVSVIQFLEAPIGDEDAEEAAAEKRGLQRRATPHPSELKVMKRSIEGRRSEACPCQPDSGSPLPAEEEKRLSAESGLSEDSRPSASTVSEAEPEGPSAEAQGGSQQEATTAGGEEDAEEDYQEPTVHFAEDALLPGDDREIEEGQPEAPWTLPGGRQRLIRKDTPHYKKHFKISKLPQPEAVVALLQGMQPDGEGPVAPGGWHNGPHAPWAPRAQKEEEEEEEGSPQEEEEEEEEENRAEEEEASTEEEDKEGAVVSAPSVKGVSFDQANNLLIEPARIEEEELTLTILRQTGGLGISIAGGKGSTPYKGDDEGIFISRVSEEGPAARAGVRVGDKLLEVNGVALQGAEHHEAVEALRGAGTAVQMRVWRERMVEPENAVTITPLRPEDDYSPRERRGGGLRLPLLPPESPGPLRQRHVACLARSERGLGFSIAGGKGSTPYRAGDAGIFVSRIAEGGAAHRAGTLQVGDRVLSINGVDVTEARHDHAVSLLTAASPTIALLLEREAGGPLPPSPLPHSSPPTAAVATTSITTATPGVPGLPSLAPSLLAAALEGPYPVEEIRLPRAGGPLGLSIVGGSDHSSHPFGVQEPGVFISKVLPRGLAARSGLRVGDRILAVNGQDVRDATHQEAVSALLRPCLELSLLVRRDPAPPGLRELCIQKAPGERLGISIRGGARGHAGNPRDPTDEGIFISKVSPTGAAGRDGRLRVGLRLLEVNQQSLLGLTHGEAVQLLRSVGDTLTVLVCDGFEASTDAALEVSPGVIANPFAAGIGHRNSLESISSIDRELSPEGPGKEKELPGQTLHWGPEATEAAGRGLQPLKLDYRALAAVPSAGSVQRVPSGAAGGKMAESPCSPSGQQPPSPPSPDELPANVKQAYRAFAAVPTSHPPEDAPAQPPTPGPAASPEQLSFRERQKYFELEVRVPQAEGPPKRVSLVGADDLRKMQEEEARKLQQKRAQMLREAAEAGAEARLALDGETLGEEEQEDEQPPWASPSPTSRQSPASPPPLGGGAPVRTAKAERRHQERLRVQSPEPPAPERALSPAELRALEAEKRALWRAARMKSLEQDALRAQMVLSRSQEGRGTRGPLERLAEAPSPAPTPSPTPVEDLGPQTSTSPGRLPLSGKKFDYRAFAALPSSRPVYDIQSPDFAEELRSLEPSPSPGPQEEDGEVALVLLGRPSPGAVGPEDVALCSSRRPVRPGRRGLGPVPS

CC[C@H](C)[C@H](NC(=O)CCC(=O)NCCCOCCOCCOCCCNC(=O)CCCC[C@@H]1SC[C@@H]2NC(=O)N[C@@H]21)C(=O)N[C@@H](CCC(N)=O)C(=O)N[C@@H](CCCNC(=N)N)C(=O)N[C@@H](CCC(=O)O)C(=O)N[C@@H](CC(=O)O)C(=O)N[C@@H](CCC(N)=O)C(=O)N[C@@H](CCC(=O)O)C(=O)N[C@H](C(=O)N[C@@H](C)C(=O)N[C@H](C(=O)O)C(C)C)[C@@H](C)O [DGKZ] ({X1-Suc}-IQREDQETAV-OH; C-terminus assumed)
Hill coefficient ([1]; Hill equation fit, three replicates): 0.6 | cooperativity [1]: negative cooperativity | pKd (fragmentomic affinity) [2]: 6.0 | pKd [3]: 5.7 | pKd_PDZ2 (SCRIB PDZ2): 4.86 | pKd_PDZ4 (SCRIB PDZ4): 4.40 | pKd_PDZ3 (SCRIB PDZ3): 5.05 | pKd_PDZ1 (SCRIB PDZ1): 4.71

TXNDC12: Thioredoxin domain-containing protein 12 OS=Homo sapiens
FC_AP (log2 fold change) (SNX27_PDZ [4]; [8]): -0.5204 | Ratio_AP (SNX27_PDZ [4]; [8]): 0.6972 | BI_HU (SNX27_PDZ [5]; Jurkat, series 1, n = 6): 0.2712 | FC_HU (log2 fold change) (SNX27_PDZ [5]; Jurkat, series 1, n = 6): -0.4564 | Ratio_HU (SNX27_PDZ [5]; Jurkat, series 1, n = 6): 0.7288 | pKapp_significant_binders_HU (SNX27_PDZ [5]; apparent, Eq. 2, Jurkat, series 1, significant binders (1 σ, P < 0.05)): 4.572

ELOC: Elongin-C
pKapp_HU_not_filtered (SNX27_PDZ [6]): 4.672 | pKapp_significant_binders_HU (SNX27_PDZ [6]): 4.672 | BI_HU (SNX27_PDZ [6]): 0.3189 | FC_HU (log2 fold change) (SNX27_PDZ [6]): -0.5541 | Ratio_HU (SNX27_PDZ [6]): 0.6811 | FC_AP (log2 fold change) (SNX27_PDZ [7]): -2.345 | Ratio_AP (SNX27_PDZ [7]): 0.1968

SNX1: component of the SNX-BAR complex
pKapp (full-length SNX27): 5.47

CC(C)C[C@H](NC(=O)[C@H](CO)NC(=O)[C@H](CO)NC(=O)CCC(=O)NCCCOCCOCCOCCCNC(=O)CCCC[C@@H]1SC[C@@H]2NC(=O)N[C@@H]21)C(=O)N[C@@H](CCC(N)=O)C(=O)N[C@@H](CO)C(=O)N[C@@H](CC(C)C)C(=O)N[C@@H](CCC(=O)O)C(=O)N[C@H](C(=O)N[C@@H](CO)C(=O)N[C@H](C(=O)O)C(C)C)[C@@H](C)O [ATP2B4] ({X1-Suc}-SSLQSLETSV-OH; C-terminus assumed)
pKd (fragmentomic affinity) [2]: 5.70 | pKd_PDZ2 (SCRIB PDZ2): 4.90 | pKd_PDZ4 (SCRIB PDZ4): 4.38 | pKd_PDZ3 (SCRIB PDZ3): 5.11 | pKd_PDZ1 (SCRIB PDZ1): 5.03

VPS26B: component of the retromer complex
pKapp (full-length SNX27): 5.23

MACROH2A1
Ratio_AP (SNX27_PDZ [4]; AP-MS control pull-down, SNX27/MBP, total Jurkat extract): 19.7749 | FC_AP (SNX27_PDZ [4]; AP-MS control pull-down, SNX27 vs MBP, total Jurkat extract): 4.3056 | BINDER_AP (SNX27_PDZ [4]; AP-MS control pull-down, total Jurkat extract, BINDS / DOES NOT BIND): BINDS | Ratio_HU (SNX27_PDZ [5]; nHU-MS, SNX27/MBP, total Jurkat extract, sheet "SNX27&Jurkat"): 0.6592 | BI_HU (SNX27_PDZ [5]; nHU-MS, SNX27 bait vs MBP control, total Jurkat extract, sheet "SNX27&Jurkat"): 0.3408 | pKapp_HU_not_filtered (SNX27_PDZ [5]; nHU-MS, SNX27 bait, total Jurkat extract, not filtered for significance): 4.715 | FC_HU (SNX27_PDZ [5]; nHU-MS, SNX27 vs MBP control, total Jurkat extract, sheet "SNX27&Jurkat"): -0.6013

VTN: Vitronectin
pKapp_HU_not_filtered (SNX27_PDZ [6]): 4.715 | pKapp_significant_binders_HU (SNX27_PDZ [6]): 4.715 | BI_HU (SNX27_PDZ [6]): 0.3408 | FC_HU (log2 fold change) (SNX27_PDZ [6]): -0.6012 | Ratio_HU (SNX27_PDZ [6]): 0.6592 | FC_AP (log2 fold change) (SNX27_PDZ [7]): 0.6536 | Ratio_AP (SNX27_PDZ [7]): 1.573
